Reference: patent publication US12351819B2, “Method for removing undifferentiated pluripotent stem cells” (priority 2017, dated 2025)

What was measured:
Assay type in all cases: cell-based, human
[1] = tested on: H9 hESC-MSCs; assay: Cell morphology under bright field, H9 hESC-MSCs; conditions: 2.5 μM, 12 hours and 24 hours
[2] = tested on: hESCs; assay: PI/Annexin V flow cytometry cell death assay, hESCs; conditions: 24 hours; FIG. 2A: 1.25 μM digoxin, 2.5 μM lanatoside C
Method: For cell death assay, Propidium iodine/Annexin V assay was performed according to the manufacturer's instruction (Alexa Fluor® 488 Annexin V/Dead Cell Apoptosis Kit; Life Technologies). In brief, live cells were dissociated with trypsin and incubated with Annexin V antibody and PI working solution for 15 minutes. We added 400 μl 1× annexin binding buffer and analyzed the stained cells by FACSCanto™ (Becton Dickinson, Franklin Lakes, NJ, USA). For analyzing the phenotypic signature of MSCs we used a Stemflow™ hMSC analysis kit (BD Biosciences) and FACSCanto™. All flow data was analyzed by FACSDivam software (BD Biosciences) and FlowJo™ (FlowJo, LLC, Ashland, USA).

[3] = tested on: hBMMSCs; assay: Chondrogenic induction and Alcian blue assay; conditions: 2.5 μM 24 hours, drug removed; Alcian blue O.D 650 nm
Method: Next, drugs were removed, and 1×10^5 cells were seeded in 96-well U-bottom culture plated. After 24 hours, we changed the complete MSCgo™ Chondrogenic medium (Biological Industries) for 21 days. The media were changed every 3-4 days. Next, the pelleted cells were fixed with 4% formaldehyde for 1 hours, washed twice with ddH2O, and stained with a 1% Alcian blue solution in 0.1N HCl for 30 min. For Alcian Blue elution, we added […] Guanidine HCL solution and incubated overnight at RT. The absorbance at 650 nm was detected.

[4] = tested on: hESC-hepatocyte endoderm cells; assay: LDH cytotoxicity assay in hESC-derived hepatocyte endoderm; conditions: Table 1
Method: This protocol followed a method previously published in Nature Protocols^36. The hESCs were detached by 0.5 mM EDTA (Life Technologies, Camarillo, C, USA), seeded on VTN-N coated culture plates (Corning) and maintained for 48 hours in mTeSR 1 medium. Then, the medium was refreshed daily for all following steps. On days 1-2, the medium was replaced with fresh CDM-PVA (consisting of 0.5 g of PVA (Sigma) dissolved in 250 ml of IMDM/F-12, GlutaMAX (Invitrogen), 250 ml of IMDM (Invitrogen), 5 ml of chemically defined lipid concentrate (Invitrogen), 20 of thioglycerol 97% (Sigma), 350 of insulin (10 mg/ml; Roche), 250 of transferrin (30 mg/ml; Roche) plus Activin A (100 ng/ml; R&D), bFGF (80 ng/ml; R&D), BMP4 (10 ng/ml; R&D), and […] of LY-294002 (Promega). On day 3, the cells were differentiated in RPMI Medium supplemented with Activin A (100 ng/ml) and bFGF (80 ng/ml). On days 4-6, the cells were expanded in RPMI medium supplemented with Activin A (50 ng/ml). On day 7, the cells were passaged and re-plated 105,000 cells/cm^2 cells in VTN-N coated culture plates in RPMI containing Activin A (50 ng/ml) and Y-27632 2HCl (10 μM Selleck-chem, Houston, TX, USA and Munich, Germany). Then, the cells were maintained in RPMI+Activin A (50 ng/ml) on days 8-11. The cells were differentiated into the hepatocyte endoderm and analyzed following the drug treatments. The expression of alpha-fetoprotein (A0008, Dako, Santa Clara, CA, USA) was analyzed in the hepatocyte endoderm via immunofluorescence staining.

C[C@H]1O[C@@H](O[C@H]2[C@@H](O)C[C@H](O[C@H]3[C@@H](O)C[C@H](O[C@H]4CC[C@@]5(C)[C@H](CC[C@@H]6[C@@H]5C[C@@H](O)[C@]5(C)[C@@H](C7=CC(=O)OC7)CC[C@]65O)C4)O[C@@H]3C)O[C@@H]2C)C[C@H](O)[C@@H]1O [Digoxin, digoxin]
cell death (bright field morphology) in H9 hESC-MSCs [1]: Neither digoxin (2.5 μM) nor lanatoside C (2.5 μM) induced cell death | cell death (PI/Annexin V) in hESCs [2]: 70% | differentiation ability of hBMMSCs into chondrocytes [3]: neither digoxin nor lanatoside C affected the differentiation ability | LDH assay positive, hepatocyte endoderm cells [4]: −/+ (10% positive cells)

CC(=O)O[C@H]1C[C@H](O[C@H]2[C@@H](O)C[C@H](O[C@H]3[C@@H](O)C[C@H](O[C@H]4CC[C@@]5(C)[C@H](CC[C@@H]6[C@@H]5C[C@@H](O)[C@]5(C)[C@@H](C7=CC(=O)OC7)CC[C@]65O)C4)O[C@@H]3C)O[C@@H]2C)O[C@H](C)[C@H]1O[C@@H]1O[C@H](CO)[C@@H](O)[C@H](O)[C@H]1O [Lanatoside C, lanatoside C]
cell death (bright field morphology) in H9 hESC-MSCs [1]: Neither digoxin (2.5 μM) nor lanatoside C (2.5 μM) induced cell death | cell death (PI/Annexin V) in hESCs [2]: 82% | differentiation ability of hBMMSCs into chondrocytes [3]: neither digoxin nor lanatoside C affected the differentiation ability | LDH assay positive, hepatocyte endoderm cells [4]: −/+ (10% positive cells)
